Like-named read-outs stand apart in the source and are kept apart here.
How the values were obtained:
[1] = system: Bordetella bronchiseptica (B.br) ABU-1; assay: In vitro sensitivity test (agar dilution method); assay type: cell-based; settings: 37°C, 20 to 24 hours
[2] = system: Escherichia coli (E.coli) E-17, chicken-origin strain isolated from the field; assay: In vitro sensitivity test (agar dilution method); assay type: cell-based; settings: 37°C, 20 to 24 hours
Method in brief: (§1)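 MS (liquid dilution): Frey medium + 12 % pig-serum + 0.01 % βNAD, 37°C, 7 days. S.au (agar dilution): Mueller Hinton agar, 37°C, 20 to 24 hours. P.pis: heart infusion agar + 1.5 % NaCl, 25°C, 40 to 48 hours. All strains animal-origin.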

[3] = system: Escherichia coli (E.coli) JC-2; assay: In vitro sensitivity test (agar dilution method); assay type: cell-based; settings: 37°C, 20 to 24 hours
[4] = system: Hemophilus paragallinarum (H.pg) 221; assay: In vitro sensitivity test (agar dilution method); assay type: cell-based; settings: agar dilution, 37°C, 20 hours, 10 % CO₂
[5] = system: Hemophilus paragallinarum (H.pg) S-1; assay: In vitro sensitivity test (agar dilution method); assay type: cell-based; settings: agar dilution, 37°C, 20 hours, 10 % CO₂
[6] = system: Hemophilus pleuropneumonia (H.pp) M-1; assay: In vitro sensitivity test (agar dilution method); assay type: cell-based; settings: 37°C, 20 hours, 10 % CO₂
[7] = system: Salmonella typhimurium (S.typhi) 13311; assay: In vitro sensitivity test (agar dilution method); assay type: cell-based; settings: 37°C, 20 to 24 hours
[8] = system: Staphylococcus aureus (S.au) 209P; assay: In vitro sensitivity test (agar dilution method); assay type: cell-based; settings: 37°C, 20 to 24 hours
Method in brief: as §1

[9] = system: Pasteurella piscicida (P.pis) No. 2; assay: In vitro sensitivity test; assay type: cell-based; settings: 25°C, 40 to 48 hours
Method in brief: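 For the fish-origin P.pis strain this meant heart infusion agar supplemented with 1.5 % NaCl at 25°C for 40 to 48 hours. S.au plates used Mueller Hinton agar at 37°C for 20 to 24 hours. MS broths used Frey medium with 12 % pig-serum and 0.01 % βNAD at 37°C for 7 days.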

[10] = system: Streptococcus sp (Str.sp) SNO6119; assay: In vitro sensitivity test; assay type: cell-based; settings: 25°C, 40 to 48 hours
[11] = system: TS-resistant strain of MG; assay type: in vivo, chicken; settings: 9-days chicken; for Infectious index Left air sack + / Infectious index Left air sack ++ / Infectious index Left air sack +++ / Infectious index Left air sack - / Infectious index Right air sack + / Infectious index Right air sack ++ / Infectious index Right air sack +++ / Infectious index Right air sack -: count of fowl; for Infectious index Left air sack + / Infectious index Left air sack ++ / Infectious index Left air sack +++ / Infectious index Left air sack - / Infectious index Right air sack + / Infectious index Right air sack ++ / Infectious index Right air sack +++ / Infectious index Right air sack - / Number of fowl having air sack lesions: 1.7 x 10³ CFU/fowl; for Number of infected fowl/Number of fowl tested: 3.5 x 10³ CFU/fowl
[12] = system: TS-resistant MG; assay: Experimental MG infection to chicken, through bait; assay type: in vivo; settings: 9-days chicken; for Number of infected fowl/Number of fowl tested: 6.6 x 10³ CFU/fowl, dissection 6th day after inoculation; for Number of fowl having air sack lesions / Infectious index Left air sack + / Infectious index Left air sack ++ / Infectious index Left air sack +++ / Infectious index Left air sack - / Infectious index Right air sack + / Infectious index Right air sack ++ / Infectious index Right air sack +++ / Infectious index Right air sack -: 1.8 x 10³ CFU/fowl; for Infectious index Left air sack + / Infectious index Left air sack ++ / Infectious index Left air sack +++ / Infectious index Left air sack - / Infectious index Right air sack + / Infectious index Right air sack ++ / Infectious index Right air sack +++ / Infectious index Right air sack -: count of fowl
[13] = system: H.pp (otherwise called Actinobacillus pleuropneumoniae) strain M-1; assay: Experimental H.pp infection to pig, through injection; assay type: in vivo; settings: injection to thigh muscle one time, Dose 5 mg/kg; dissection 6 days after inoculation
Description: In these experiments, the compound (I) was applied to the designated animals by (1) oral administration, (2) incorporation into baits and (3) intramuscular injection, the details of which are explained below.
(3) Preparation of the MG infected fowls was performed in the same manner as in (1) above. Infection of H.pp (otherwise called Actinobacillus pleuropneumoniae) to cause pleuropneumonia in pig was performed by inoculating 5 ml of a fresh cultured strain (i.e. M-1) of H.pp to each nasopharyngeal of some 45 days pigs, each weighing 4 to 9 kg (4 to 5 pigs/group), followed by injection of the test compounds to each thigh muscle at a designated volume one time. Pigs were dissected 6 days after the inoculation. The evaluation of the antimicrobial activity was made by observation of the pneumonia symptomes in air sacs, number of dead body and degree of nodosity in air sacks on dissection.

Cl.Nc1c(F)c(N2C[C@@H]3CC[C@@H](N)[C@@H]3C2)c(F)c2c1c(=O)c(C(=O)O)cn2C1CC1 (relative stereo) [I-16]
1: Infectious index Right air sack - ([11]; oral 6.25 mg/kg) | Infectious index Right air sack + ([12]; bait 15.6 ppm/Day) | Infectious index Right air sack + ([12]; bait 31.3 ppm/Day)
2: Infectious index Right air sack ++ ([12]; bait 15.6 ppm/Day) | Infectious index Right air sack - ([12]; bait 15.6 ppm/Day) | Infectious index Right air sack ++ ([12]; bait 31.3 ppm/Day) | Infectious index Right air sack - ([12]; bait 31.3 ppm/Day)
0.39 µg/mL: In vitro Sensitivity Test P.pis No. 2 [9] | In vitro Sensitivity Test Str.sp SNO6119 [10]
0/4: Number of pig having nodi/Number of pig tested [13]
2/5: Number of infected fowl/Number of fowl tested ([11]; oral 3.13 mg/kg) | Number of infected fowl/Number of fowl tested ([11]; oral 6.25 mg/kg)
0.025 µg/ml: In vitro Sensitivity Test E.coli E-17 [2]
3: Infectious index Right air sack ++ ([11]; oral 6.25 mg/kg) | Number of fowl having air sack lesions ([11]; oral 6.25 mg/kg) | Number of fowl having air sack lesions ([12]; bait 15.6 ppm/Day) | Number of fowl having air sack lesions ([12]; bait 31.3 ppm/Day)
4: Infectious index Left air sack - ([11]; oral 6.25 mg/kg)
5: Infectious index Left air sack - ([11]; oral 12.5 mg/kg) | Infectious index Right air sack - ([11]; oral 12.5 mg/kg) | Infectious index Left air sack - ([11]; oral 25.0 mg/kg) | Infectious index Right air sack - ([11]; oral 25.0 mg/kg) | Infectious index Left air sack - ([12]; bait 15.6 ppm/Day) | Infectious index Left air sack - ([12]; bait 31.3 ppm/Day) | Infectious index Left air sack - ([12]; bait 62.5 ppm/Day) | Infectious index Right air sack - ([12]; bait 62.5 ppm/Day)
5/5: Number of infected fowl/Number of fowl tested ([11]; oral 1.56 mg/kg)
0.2 µg/mL: In vitro Sensitivity Test H.pg 221 [4] | In vitro Sensitivity Test H.pg S-1 [5] | In vitro Sensitivity Test H.pp M-1 [6]
0: Infectious index Left air sack + ([11]; oral 6.25 mg/kg) | Infectious index Left air sack ++ ([11]; oral 6.25 mg/kg) | Infectious index Left air sack +++ ([11]; oral 6.25 mg/kg) | Infectious index Right air sack + ([11]; oral 6.25 mg/kg) | Infectious index Right air sack +++ ([11]; oral 6.25 mg/kg) | Infectious index Left air sack + ([11]; oral 12.5 mg/kg) | Infectious index Left air sack ++ ([11]; oral 12.5 mg/kg) | Infectious index Left air sack +++ ([11]; oral 12.5 mg/kg) | Infectious index Right air sack + ([11]; oral 12.5 mg/kg) | Infectious index Right air sack ++ ([11]; oral 12.5 mg/kg) | Infectious index Right air sack +++ ([11]; oral 12.5 mg/kg) | Infectious index Left air sack + ([11]; oral 25.0 mg/kg) | Infectious index Left air sack ++ ([11]; oral 25.0 mg/kg) | Infectious index Left air sack +++ ([11]; oral 25.0 mg/kg) | Infectious index Right air sack + ([11]; oral 25.0 mg/kg) | Infectious index Right air sack ++ ([11]; oral 25.0 mg/kg) | Infectious index Right air sack +++ ([11]; oral 25.0 mg/kg) | Number of fowl having air sack lesions ([11]; oral 12.5 mg/kg) | Number of fowl having air sack lesions ([11]; oral 25.0 mg/kg) | Number of fowl having air sack lesions ([12]; bait 62.5 ppm/Day) | Infectious index Left air sack + ([12]; bait 15.6 ppm/Day) | Infectious index Left air sack ++ ([12]; bait 15.6 ppm/Day) | Infectious index Left air sack +++ ([12]; bait 15.6 ppm/Day) | Infectious index Right air sack +++ ([12]; bait 15.6 ppm/Day) | Infectious index Left air sack + ([12]; bait 31.3 ppm/Day) | Infectious index Left air sack ++ ([12]; bait 31.3 ppm/Day) | Infectious index Left air sack +++ ([12]; bait 31.3 ppm/Day) | Infectious index Right air sack +++ ([12]; bait 31.3 ppm/Day) | Infectious index Left air sack + ([12]; bait 62.5 ppm/Day) | Infectious index Left air sack ++ ([12]; bait 62.5 ppm/Day) | Infectious index Left air sack +++ ([12]; bait 62.5 ppm/Day) | Infectious index Right air sack + ([12]; bait 62.5 ppm/Day) | Infectious index Right air sack ++ ([12]; bait 62.5 ppm/Day) | Infectious index Right air sack +++ ([12]; bait 62.5 ppm/Day)
0/7: Number of infected fowl/Number of fowl tested ([12]; bait 62.5 ppm/Day) | Number of infected fowl/Number of fowl tested ([12]; bait 125 ppm/Day)
2/7: Number of infected fowl/Number of fowl tested ([12]; bait 3.13 ppm/Day)
0.05 µg/mL: In vitro Sensitivity Test E.coli JC-2 [3] | In vitro Sensitivity Test S.typhi 13311 [7]
1.56 µg/mL: In vitro Sensitivity Test B.br ABU-1 [1]
0.025 µg/mL: In vitro Sensitivity Test S.au 209P [8]

Reference: patent EP0429304A2, “Pyridone-carboxylic acid derivatives and their use as veterinary medicines” (SHIONOGI SEIYAKU KABUSHIKI KAISHA trading under the name of …, priority 1989, dated 1991)
